Values after ≈ are worked out from the molar mass of the structure shown. Numbered stars: 1 amine (or outer) side, 2 acyl side, 3 side chain; on linkers, the order of the positions; unused ones are H or OH. Bridge positions count the residues as written; N and C are the ends. Square brackets hold non-standard residues; d marks the D form. Peptide text beside a SMILES is read from it. * marks the point of attachment. hTyr(3S-OH,4S-OH,3'-OSO3H) = N[C@H](C(=O)O)[C@H](O)[C@@H](O)c1ccc(O)c(OS(=O)(=O)O)c1; pTerphenylCO(4''-OnC5H11) = CCCCCOc1ccc(-c2ccc(-c3ccc(C(=O)*)cc3)cc2)cc1; Orn(4R-OH,5R-OH) = O=C([C@H](C[C@@H](O)[C@@H](O)N[*:3])N[*:1])[*:2]; hTyr(3S-OH,4S-OH) = N[C@H](C(=O)O)[C@H](O)[C@@H](O)c1ccc(O)cc1; Pro(3S-OH,4S-Me) = C[C@H]1CN[C@H](C(=O)O)[C@H]1O; X1 = CCCCCOc1ccc(-c2cc(-c3ccc(C(=O)*)cc3)no2)cc1; Gln(3R-OH) = NC(=O)C[C@@H](O)[C@H](N)C(=O)O; Hyp = O=C(O)[C@@H]1C[C@@H](O)CN1

The test has as its system Magnusiomyces capitatus. Description: Antimicrobial activity against Blastoschizomyces capitatus by microdilution method. The class given is functional. In general terms: Broth dilution looks for growth in wells or tubes with falling amounts of substance.
For `C[C@@H]1[C@H](O)[C@@H](C)/C=C/C=C/C=C/C=C/C=C/C=C/C=C/[C@H](O[C@@H]2O[C@H](C)[C@@H](O)[C@H](N)[C@@H]2O)C[C@@H]2O[C@](O)(C[C@@H](O)C[C@@H](O)[C@H](O)CC[C@@H](O)C[C@@H](O)CC(=O)O[C@H]1C)C[C@H](O)[C@H]2C(=O)O` [AMPHOTERICIN B], the lowest concentration to inhibit growth (MIC) was 0.5 mg/L (≈ 0.541 µM).

Take `CCCCCOc1ccc(-c2ccc(-c3ccc(C(=O)N[C@H]4C[C@@H](O)[C@@H](O)NC(=O)[C@@H]5[C@@H](O)[C@@H](C)CN5C(=O)[C@H]([C@@H](C)O)NC(=O)[C@H]([C@H](O)[C@@H](O)c5ccc(O)cc5)NC(=O)[C@@H]5C[C@@H](O)CN5C(=O)[C@H]([C@@H](C)O)NC4=O)cc3)cc2)cc1` [ANIDULAFUNGIN] ({pTerphenylCO(4''-OnC5H11)}-[Orn(4R-OH,5R-OH)]T[Hyp][hTyr(3S-OH,4S-OH)]T[Pro(3S-OH,4S-Me)]; lactam 1-C): the minimal inhibitory concentration (MIC) – broadly, the lowest concentration found to suppress growth – was determined as 0.5 mg/L (≈ 0.438 µM).

With `CC[C@H](C)C[C@H](C)CCCCCCCCC(=O)N[C@H]1C[C@@H](O)[C@@H](NCCN)NC(=O)[C@@H]2[C@@H](O)CCN2C(=O)[C@H]([C@H](O)CCN)NC(=O)[C@H]([C@H](O)[C@@H](O)c2ccc(O)cc2)NC(=O)[C@@H]2C[C@@H](O)CN2C(=O)[C@H]([C@@H](C)O)NC1=O` [CASPOFUNGIN], it took 8 mg/L (≈ 7.32 µM) to inhibit growth (MIC).

In turn, `OC(Cn1cncn1)(Cn1cncn1)c1ccc(F)cc1F` [FLUCONAZOLE] displayed an MIC of 4 mg/L (≈ 13.1 µM).

The molecule `Nc1nc(=O)[nH]cc1F` [FLUCYTOSINE] yielded a minimal inhibitory concentration (MIC) not above 0.06 mg/L.

Molecule `CCC(C)n1ncn(-c2ccc(N3CCN(c4ccc(OCC5COC(Cn6cncn6)(c6ccc(Cl)cc6Cl)O5)cc4)CC3)cc2)c1=O` (centres undefined) [ITRACONAZOLE] yielded a minimal inhibitory concentration (MIC) of 0.06 mg/L (≈ 0.085 µM).

`CCCCCOc1ccc(-c2cc(-c3ccc(C(=O)N[C@H]4C[C@@H](O)[C@@H](O)NC(=O)[C@@H]5[C@@H](O)[C@@H](C)CN5C(=O)[C@H]([C@H](O)CC(N)=O)NC(=O)[C@H]([C@H](O)[C@@H](O)c5ccc(O)c(OS(=O)(=O)O)c5)NC(=O)[C@@H]5C[C@@H](O)CN5C(=O)[C@H]([C@@H](C)O)NC4=O)cc3)no2)cc1` [MICAFUNGIN] (X1-[Orn(4R-OH,5R-OH)]T[Hyp][hTyr(3S-OH,4S-OH,3'-OSO3H)][Gln(3R-OH)][Pro(3S-OH,4S-Me)]; lactam 1-C) returned an MIC of 0.5 mg/L (≈ 0.394 µM).

In turn, `CC[C@@H]([C@H](C)O)n1ncn(-c2ccc(N3CCN(c4ccc(OC[C@@H]5CO[C@@](Cn6cncn6)(c6ccc(F)cc6F)C5)cc4)CC3)cc2)c1=O` [POSACONAZOLE] registered a minimal inhibitory concentration (MIC) of 0.12 mg/L (≈ 0.171 µM).

For `C[C@@H](c1ncncc1F)[C@](O)(Cn1cncn1)c1ccc(F)cc1F` [VORICONAZOLE], the MIC was 0.06 mg/L (≈ 0.172 µM).

The values are drawn from ChEMBL document CHEMBL1649260, “Case of fatal Blastoschizomyces capitatus infection occurring in a patient receiving empiric micafungin therapy” (2009).
